Earlier results on one molecule are cited in patent publication US20050272714A1, “Use of targeted oxidative therapeutic formulation in treatment of diabetes and obesity” (priority 2004, published 2005).

Structures are written as SMILES.

For data set [1], the system named is peroxide-sensitive E. coli. The conditions noted are these: infused into the blood of infected rabbits.
The subject of data set [2] is E. coli. The conditions noted are these: increasing concentration ex-vivo in rabbit or human blood.

With `OO` [hydrogen peroxide], the bactericidal effect entry in data set [1] is “no bactericidal effect”. In data set [2], the direct bactericidal activity entry was “no evidence of direct bactericidal activity”.
